Test results taken from patent US9096882B2, “Method of selecting antioxidants for use in topically applied compositions” (MSD Consumer Care, Inc., priority 2008, dated 2015).

How the values were obtained:
[1] = DPPH (α,α-diphenyl-β-picrylhydrazyl) free radical test; format: biochemical; settings: 20 min, 30° C., absorbance 517 nm
Method: DPPH is a stable free radical that when dissolved in solution forms an intense purple color. […] The extent to which the color fades can be easily measured and used to rank the relative effectiveness of different materials purported to have antioxidant properties.
Measurements were recorded for antioxidant raw materials in simple methanol solutions. Samples were prepared by dissolving antioxidants at various concentrations in methanol. After sample preparation, 125 μl of the sample or pure methanol as a control were pipetted into sample test tubes followed by 2 ml of methanol and vortexed. Then 2 ml of DPPH stock solution (0.25 mM in methanol) was added to each tube (giving a total volume of 4.125 ml for each sample) and vortexed. Immediately after addition of DPPH, test tubes were covered and placed into a 30° C. water bath for 20 minutes. After the 20 minute incubation, the absorbance of each sample was recorded at 517 nm using a Perkin Elmer Lambda 40 spectrophotometer. All samples were prepared in triplicate and their mean absorbance values were used to express the efficacy of antioxidants at various concentrations in terms of antioxidant reducing units (ARU) by using the following equation: ARU=(Absorbance Methanol Control−Absorbance sample)×10 ARU values range in magnitude from 0 for “no” efficacy to about 15 for raw materials that have high antioxidant efficacy.

[2] = test system: UV-induced ROS in EpiDerm™ Skin Model (human-derived epidermal keratinocytes); assay: Two photon fluorescence microscopy on EpiDerm Skin Model (UV-induced ROS down to the basal layer); format: cell-based; settings: result in words (FIG. 4)
Method: Two photon fluorescence microscopy was then conducted on a formulation containing Vitamin E and Emblica to determine ability to inhibit formation of ROS. The methods used were similar to those as described above, using confocal microscopy to visualize cells at different depths within intact pieces of skin and then fluorescence to quantify the extent of ROS formation. In the present experiment, however, instead of using human breast skin, the skin used was the EpiDerm™ Skin Model (MatTek Corporation, Mass. USA), which consists of normal, human-derived epidermal keratinocytes which have been cultured to form a multilayered, highly differentiated model of the human epidermis. […]
Prior to UVR exposure, pieces of EpiDerm™ skin were treated with dihydrorhodamine, which partitions throughout the aqueous and lipid regions of the tissue. […] The fluorescence is subsequently detected and quantified to provide an indication of the level of UV-induced ROS formed in deeper layers of the skin. By applying antioxidants topically before irradiation ROS formation can be measured and compared to the ROS formed after a placebo lotion without antioxidants was applied to the skin. In this way, the efficacy of antioxidants to neutralize ROS within deeper layers of the skin can be measured and their relative efficiencies established. […]

human skin lipids = assay: Ex vivo tape strip method: inhibition of UVR-induced lipid peroxidation (LOOH); format: biochemical; settings: for % Inhibition of LOOH: tape strips irradiated 10 joules/cm^2 UVR, vs placebo lotion
Description: To determine if antioxidants (Aox) maintain their effectiveness on skin in the presence of UVR, we devised a novel and more relevant model that utilizes human skin lipids as substrates for UVR-induced peroxidation. Lipids removed from skin on broad pieces of tape serve as the substrates for subsequent exposure to UVR. By applying a standard lotion with or without Aox to skin prior to tape-stripping, skin lipids can be collected on tape strips in the presence or absence of Aox that essentially maintains the same proximity that lipids and Aox had on skin. Following UVR exposure, the extent to which the presence of Aox protect lipids against peroxidation from ROS can be measured relative to lipids in the absence of antioxidants.
Human volunteers were recruited for the test and asked not to apply any products to their arms for at least two days before the test Prior to any product treatments, inner aspects of subjects' left and right forearms were wiped with a Kimwipe™ moistened with isopropanol to remove any residues that might be on the surface of the skin. Arms were wiped only once applying gentle pressure and then allowed to dry at least 10 minutes before proceeding. A template (90 mm×50 mm) was positioned on each inner forearm such that two areas could be clearly delineated. Using a superfine tip Sharpie™ pen, a mark was placed at each corner of the template to outline each application site, with two sites delineated per forearm. Using a fingercot, either placebo or antioxidant lotion was applied (100 mg) to a delineated site on a forearm. Care was taken to insure that products were applied evenly within the entire application area. After application, sites were allowed to air-dry for 30 minutes during which subjects were instructed not to allow any clothing to come into contact with test areas.
After lotions dried for 30 minutes, each site was tape-stripped using a 4.0 inch piece of Scotch® Brand No. 800 Prescription Label tape (1.5 inches wide). […] The piece of tape was positioned over a site and then using a finger the tape was gently pressed onto the skin to make good contact. […]
Each tape extract was assayed for total LOOH content using a Lipid Hydroperoxide Assay Kit (Kamiya Biomedical Company, Thousand Oaks, Calif.) following manufacturer's directions. Lipid hydroperoxides were then quantitated by measuring methylene blue formation at 675 nm using a spectrophotometer. Standard curves were prepared using cumene hydroperoxide and were linear over the range of LOOH detected in these experiments. […]
The extent to which antioxidant (Aox) or placebo lotions inhibited UVR-induced lipid hydroperoxide (LOOH) formation was calculated by inserting the values of LOOH determined from the four application sites on each volunteer into the following equation: […]

Compound: CC1(C)CC[C@]2(C(=O)O)CC[C@]3(C)C(=CC[C@@H]4[C@@]5(C)C[C@@H](O)[C@H](O)[C@@](C)(CO)[C@@H]5CC[C@]43C)[C@@H]2C1 [Arjunolic acid (1%), Arjunolic acid]
- ARU (antioxidant reducing units) ([1]; level 1.0% in methanol): 0.4 ARU

Compound: CCCCC(CC)COC(=O)C(=Cc1cc(OC)c(O)c(OC)c1)C(=O)OCC(CC)CCCC (stereo not shown) [Diethylhexyl syringylidene malonate]
- antioxidant or pro-oxidant behaviour within skin exposed to UVR [2]: maintains its antioxidant capability
- ARU (antioxidant reducing units) ([1]; level 1.0% in methanol): 5.7 ARU

Compound: C[N+](C)(C)[C@@H](Cc1c[nH]c(=S)[nH]1)C(=O)[O-] [Ergothiotaine]
- ARU (antioxidant reducing units) ([1]; level 0.1% in methanol): 0.0 ARU

Compound: Cc1c(C)c2c(c(C)c1O)CCC(C)(CCCC(C)CCCC(C)CCCC(C)C)O2 (stereo not drawn) [Vitamin E, dl alpha tocopherol]
- ARU (antioxidant reducing units) ([1]; level 0.5% in methanol): 6.5 ARU
- % Inhibition of LOOH (human skin lipids; 0.05% in lotion): −3.40%
- % Inhibition of LOOH (human skin lipids; 0.10% in lotion): 28.4%
- % Inhibition of LOOH (human skin lipids; 0.25% in lotion): 61.0%
- protection of skin lipids against UVR-induced peroxidation (FIG. 1) (human skin lipids; result in words, FIG. 1): protects skin lipids in a dose dependant manner

Compound: CC(=O)N[C@@H](CS)C(=O)O [n-Acetyl cysteine]
- ARU (antioxidant reducing units) ([1]; level 0.1% in methanol): 9.9 ARU
